Experimental data from patent publication EP2433624B1, “Use of buparvaquone for controlling mites parasitising honeybees” (Bimeda International Pharmaceuticals Limited, priority 2010, dated 2012).
Several values for one entry are separate records, joined by “and”; a condition that tells them apart may be missing. Identical values can stand only once.

Tests used:
[1] = test system: adult honeybees (Apis mellifera); assay: Toxicity of BPQ A to honeybees when fed in a sugar syrup solution (hoarding cages, 16 days); assay type: in vivo; conditions: summary statement over all the studies
Protocol: We have assessed the toxicity of BPQ to adult honeybees (Apis mellifera) using the 50 mg/mL liquid solution, BPQ A, under laboratory conditions
Example 1 - Toxicity of BPQ A to honeybees when fed in a sugar syrup solution (50mL liquid at a concentration of 50mg BPQ/mL)
Hoarding cages consisted of plastic tumblers (600mL) with an opening diameter of 84mm. The tumblers were paired with standard plastic petri-dishes and glass scintillation vials. To allow sufficient ventilation, 33 holes, approximately 3mm in diameter were made in the sides of each tumbler, in addition to two 30mm x 30mm holes fitted with nylon mesh. A circular hole was cut out of the bottom of the cup, which produced an opening large enough to allow a lidded scintillation vial to pass through the hole. Two holes were drilled into the lids of the scintillation vials with a 1mm bit and these vials were filled a 1:1 sugar solution, together with different concentrations of the solvent and product. […]
Three replicates were analysed at each concentration of BPQ A and solvent as outlined below, together with a control group which were only fed sugar and water throughout the experimental period.
Bees were maintained for 16 days at 32°C. Bees were fed additional food as required throughout the experimental period and the general behaviour and survival of the test bees were recorded on a daily basis. […]

Solubility in water = assay type: physicochemical
Varroa mites = assay: Toxicity to Varroa mites submerged in 3µL liquid in eppendorf tubes; assay type: in vivo; conditions: for mean number of live mites: day 3, 10 mites per tube
Protocol: Example 5 - Toxicity of BPQ A to Varroa mites
To assess the toxicity of BPQ to the Varroa mite
Varroa mites only feed on haemolymph of larvae and adult bees and thus would not ingest BPQ in a syrup/water solution. Therefore, it was necessary to identify a volume sufficient to permeate through the cuticle, but not drown the mites. After preliminary investigation it was concluded that 3µL/10 mites/eppendorf tube gave the maximum viability and the latter was used for this trial.
A total of 3µL of BPQ A/solvent was pipetted into each eppendorf tube. Ten mites taken from purple eye drone pupae were submerged in the liquid by tapping the tube gently and a fresh pupa was placed in each tube. 20 pinholes were made in each of the tubes and all samples were placed in the incubator at 30°C. Three replicates were made for each concentration and water was used in the control group. Concentrations of BPQ A and solvent were as described above (Section 1.1). The number of damaged or dead mites was counted on a daily basis. Damaged mites were mites that would not move in a coordinated fashion when touched gently 3 times with a fine brush.

honeybees = assay: Survival of bees sprayed with aqueous solutions of BPQ; assay type: in vivo, Apis mellifera; conditions: 20 bees per cage
Protocol: Example 7 - Toxicity of BPQ B to Varroa mites on honeybees when sprayed with an aqueous solution of the active ingredient
A total of 20 newly emerged Varroa infested bees were placed in hoarding cages. The cages were prepared as described in Section 1.0, except that the air vents were reduced in size using parafilm to prevent the Varroa mites escaping during the test period. The mean(±se) number of mites per 20 bees was estimated prior to commencement and an additional 10 mites per cage were added. Mites were collected and introduced as described above. The treatment solution was made by dissolving BPQ B in solvent, followed by two aqueous serial dilutions producing a concentration of 500µg/mL and 5µg/mL. From the latter, further serial dilutions were carried in water producing the following concentrations: • 0.5µg/mL. (C1-C3) • 0.05µg/mL. (D1-D3) • 0.005µg/mL. (E1-E3) • 0.0005µg/mL. (F1-F3) • 0.00005µg/mL (G1-G3)
Three replicates were established at each concentration plus a control group which were sprayed with water only. All test groups were fed 10mL of 1:1 sucrose:water solution and placed in the incubator at 32°C and monitored on a daily basis for the number of mites and number of bees knocked down. At the end of five day treatment period, the percentage efficacy of the treatment was estimated by treating bees in all cages with Apistan. % efficacy = mites knocked from treatment/total mites (treatment+Apistan)*100 [formula]

mammals = conditions: dosages many thousands of times higher than those in the invention; cited from earlier work
honeybee larvae = assay: Toxicity of BPQ A in an aqueous solution when sprayed on honeybee larvae; assay type: in vivo, Apis mellifera; conditions: summary statement
Protocol: Example 3 - Toxicity of BPQ A in an aqueous solution when sprayed on honeybee larvae (50mL liquid at a concentration of 50mg/mL - BPQ A)
To spray eggs/larvae with different concentrations of the active ingredient/solvent and examine the effect on development of the young larvae
Eggs/larvae of similar age were attained by placing the queen bee in a frame cage for 36 hrs. Once the frame was laid up, the queen was released and the frame was replaced in the colony for 3 days. The frame cage allowed worker bees to attend the larvae, but prevented the queen from laying in the frame. On day 3/4, when the eggs were changing to larvae, the frame was removed and divided temporarily in 6 x 5cm strips at either side using grease proof paper to facilitate the assessment of product and solvent. Within each strip, three 3.5cm x 2.5cm squares (approximately 30 cells) of grease proof paper was removed and the developing larvae sprayed with BPQ A/solvent at the concentrations described above.

[2] = 0.00005µg/mL (g1-g3) aqueous solution sprayed
[3] = 0.0005µg/mL (f1-f3) aqueous solution sprayed
[4] = 0.005µg/mL (e1-e3) aqueous solution sprayed
[5] = 0.05µg/mL (d1-d3) aqueous solution sprayed
[6] = 0.5µg/mL (c1-c3) aqueous solution sprayed

CC(C)(C)[C@H]1CC[C@H](CC2=C(O)C(=O)c3ccccc3C2=O)CC1 [BPQ, buparvaquone]
harm to adult bees and larvae [1]: harmless
solubility in water (Solubility in water): completely insoluble
mean number of live mites (Varroa mites; 0.00005µg/mL (g)): 8.66±1.73
mean number of live mites (Varroa mites; 0.0005µg/mL (f)): 7.66±1.33
mean number of live mites (Varroa mites; 0.5µg/mL): 3.33±2.4
toxicity to free living Varroa mites (Varroa mites; summary statement): highly toxic
Bees remaining (honeybees; [2]): 18 and 17 and 20
Survival rate on bees, Day 1 (honeybees; [2]): 20
Survival rate on bees, Day 2 (honeybees; [2]): 19 and 20
Survival rate on bees, Day 3 (honeybees; [2]): 19 and 17 and 20
Survival rate on bees, Day 4 (honeybees; [2]): 19 and 17 and 20
Survival rate on bees, Day 5 (honeybees; [2]): 19 and 17 and 20
Survival rate on bees, Day 6 (honeybees; [2]): 18 and 17 and 20
Bees remaining (honeybees; [3]): 20 and 19 and 18
Survival rate on bees, Day 1 (honeybees; [3]): 20
Survival rate on bees, Day 2 (honeybees; [3]): 20 and 19 and 18
Survival rate on bees, Day 3 (honeybees; [3]): 20 and 19 and 18
Survival rate on bees, Day 4 (honeybees; [3]): 20 and 19 and 18
Survival rate on bees, Day 5 (honeybees; [3]): 20 and 19 and 18
Survival rate on bees, Day 6 (honeybees; [3]): 20 and 19 and 18
Bees remaining (honeybees; [4]): 19 and 20
Survival rate on bees, Day 1 (honeybees; [4]): 20
Survival rate on bees, Day 2 (honeybees; [4]): 20
Survival rate on bees, Day 3 (honeybees; [4]): 19 and 20
Survival rate on bees, Day 4 (honeybees; [4]): 19 and 20
Survival rate on bees, Day 5 (honeybees; [4]): 19 and 20
Survival rate on bees, Day 6 (honeybees; [4]): 19 and 20
Bees remaining (honeybees; [5]): 20 and 19
Survival rate on bees, Day 1 (honeybees; [5]): 20
Survival rate on bees, Day 2 (honeybees; [5]): 20 and 19
Survival rate on bees, Day 3 (honeybees; [5]): 20 and 19
Survival rate on bees, Day 4 (honeybees; [5]): 20 and 19
Survival rate on bees, Day 5 (honeybees; [5]): 20 and 19
Survival rate on bees, Day 6 (honeybees; [5]): 20 and 19
Bees remaining (honeybees; [6]): 19 and 20
Survival rate on bees, Day 1 (honeybees; [6]): 20
Survival rate on bees, Day 2 (honeybees; [6]): 20 and 19
Survival rate on bees, Day 3 (honeybees; [6]): 20 and 19
Survival rate on bees, Day 4 (honeybees; [6]): 19 and 20
Survival rate on bees, Day 5 (honeybees; [6]): 19 and 20
Survival rate on bees, Day 6 (honeybees; [6]): 19 and 20
neurotoxic effect (mammals): no neurotoxic effect whatsoever
toxicity to bee larvae (honeybee larvae): non-toxic
